Measured values reported in publication PMC8750527 (Cancers, 2021).

What was measured:
[1] = tested on: group 3 (D283, D458 and HD-MB03) and putative Shh group (DAOY) MB cell lines; test: MTT assay, mean IC50 over group 3 and Shh MB cell lines; assay type: cell-based; details: Homo sapiens
Protocol: HDF (3000 cells), C8-D1A (5000 cells), D458 (5000 cells), DAOY (2000 cells), HD-MB03 (10,000 cells) and CHLA-01-Med (10,000 cells) were seeded at an approximate confluency of 50% in 96-well plates (Corning Inc., Corning, NY, USA) in 100 µL medium per well. A range from 50 nM to 150 µM of every drug was tested. The effects of the antiangiogenic compounds were measured using a 3-[4,5-dimethylthiazol-2yl]-diphenyltetrazolium bromide (MTT) colorimetric assay (Sigma, Lyon, France) according to the manufacturer’s instructions. When applicable, IC50 was calculated using the nonlinear regression method of the Prism 5 software (Graphpad Software Inc., San Diego, CA, USA). […] An MTT assay was conducted as described above to assess the fitness of the cells.

[2] = tested on: HDF; test: Cumulative population doubling (CPD), HDF; assay type: cell-based, human; details: transient treatment for 48 h, 5 µM
Protocol: Cumulative population doubling (CPD) was assessed as previously described. Briefly, depending on the cell line, a variable number of cells corresponding to about 30% confluency were seeded in triplicate in 60 mm diameter Petri dishes. […] The cells were harvested when the confluency reached about 90%, counted and plated again at a dilution of 1/20. CPD was calculated as previously described.

[3] = tested on: MB cells; test: Proliferation index assay, MB cells; assay type: cell-based, human; details: after 120 h; axitinib 5 µM, etoposide 1 µM
Protocol: DAOY, D458, D283, C8-D1A and HDF (30,000 cells per well) and HD-MB03 (50,000 cells per well) were seeded in 24-well plates for proliferation assays.

[4] = tested on: HD-MB03 intracranial tumors
Protocol: HD-MB03-Luc spheroids were stereotaxically implanted into the brains of 9-week-old Rj:NMRI-Foxn1 nude (nu/nu) female mice (Janvier Labs, Le Genest-Saint-Isle, France). Briefly, MB spheroids were generated with 2500 cells grown for 48 h in ultralow-adhesion spheroid 96-well plates (Corning, Corning, NY, USA) and three spheroids per mouse were implanted into the left cerebellar hemisphere (2 mm posterior, 1.5 mm left of the lambda point and 2.5 mm deep) using a Hamilton syringe fitted with a needle (Hamilton, Bonaduz, Switzerland) and following the procedure already described. […] Oral gavage with a vehicle solution was used as the control. Mouse survival was based on the presence of neuropathological symptoms including gait defects and a loss of weight over 10% as endpoints. A minimum of five mice per group was chosen to yield sufficient statistical power (p < 0.05, one-way ANOVA). These experiments were carried out in strict accordance with the recommendations in the Guide for the Care and Use of Laboratory Animals. Our experiments were approved by Direction de l’Action Sanitaire et Sociale of the Principality of Monaco and the ethics committee of Centre Scientifique de Monaco.
Tumor samples were recovered from the animals and embedded in the OCT compound according to the manufacturer’s protocol (Thermo Fisher Scientific Inc., Waltham, MA, USA). After that, 5 µm thin sections were prepared with a cryostat (Leica Microsystems, Wetzlar, Germany). Incubation was carried out with the following antibodies diluted at 1:1000 in TBS supplemented with 1% horse serum and 1% BSA for 20 min at room temperature: anti-Ki67 (cat. number ab16667, Abcam, Cambridge, UK), anti-CD31 (cat. number 550274, BD Biosciences, Frankton Lake, NJ, USA) or anti-αSMA (cat. number A2547, Merck Millipore, Burlington, MA, USA). The preparations were then washed with TBS–0.025% Triton, incubated with anti-rabbit Alexa488 and anti-mouse Alex-555-coupled secondary antibodies (Cell Signaling Technology, Danvers, MA, USA), washed with TBS–0.025% Triton, and the nuclei were counterstained with Hoechst33342 (Thermo Fisher Scientific, Waltham, MA, USA). Fluorescence images of the cells were taken with a DMI400 inverted microscope equipped with a 40× objective (Leica Microsystemes, Nanterre, France) and a Zyla 5.5 camera (Andor Technologies, Belfast, UK) powered by the Micromanager software. At least one cross-section of nonoverlapping images of each tumor was acquired. All the images were then quantified with the CellProfiler 3.0 software.

[5] = tested on: human brain endothelial cells (BEC, hCMEC/D3); test: MTT assay, brain endothelial cells; assay type: cell-based; details: after three days, 1, 5 and 25 µM tested
[6] = LC/MS measurement of axitinib in rat cerebellum; assay type: in vivo; details: after 28 days of 50 mg/kg/day oral gavage
Description: (§1) The experiments were approved by Comité National Institutionnel d’Ethique pour l’Animal de Laboratoire (France). The rats were bled and the brains were recovered and flash-frozen at the end of the experiment.

[7] = tested on: 20-day-old Wistar rats; test: Juvenile rat toxicity experiment; assay type: in vivo; details: 50 mg/kg daily, oral gavage, four weeks; female and male
Description: as §1

[8] = tested on: C8-D1A/HD-MB03 mixed spheroids; test: 3D mixed spheroids of astrocytes and MB cells; assay type: cell-based; details: 7 days; axitinib 5 µM or etoposide 1 µM
Protocol: C8-D1A cells were stained with the green fluorescent probe neuro-DiO (cat. number 60015, Biotium, Fremont, CA, USA) according to the manufacturer’s protocol. C8-D1A-neuroDio cells (150,000) and HD-MB03-mCherry or DAOY-mCherry cells (50,000) were plated in 12-well plates. […] Fluorescence images of the cells were taken with a DMI400 inverted microscope (Leica Microsystemes SAS, Nanterre, France) equipped with a 40× objective and a Zyla 5.5 camera (Andor Technologies, Belfast, UK). The cells were then trypsinized and the number of both cell types was quantified using a Melody FACS (BD Biosciences, Frankton Lake, NJ, USA) with a 488 nm laser beam. Analysis of the FACS data was conducted with the Flowjo software (Tree Star Inc., Ashland, OR, USA).
Two thousand cells were seeded in ultralow-adhesion 96-well plates (Corning Inc., Corning, NY, USA). […] Pictures were taken with an AMG Evos microscope 40× objective (Thermo Fisher Scientific Inc, Waltham, MA, USA) and the spheroid areas were measured using the ImageJ software (NIH, Bethesda, MD, USA).

## CNC(=O)c1ccccc1Sc1ccc2c(/C=C/c3ccccn3)n[nH]c2c1 [Axitinib, axitinib]
[1]
  IC50: 1100 ± 900 nM
[2]
  proliferation (CPD) of HDF normal cells after removal of the drug: able to proliferate again
[3]
  reduction of proliferation of MB cells: more than 80%
[4]; metronomic oral treatment
  number of CD31-positive and αSMA-positive double-stained structures (vessels covered with pericytes): decreased the number
[4]; oral, five times a week, axitinib 50 mg/kg, combination 25 + 15 mg/kg
  intracranial tumor growth (BLI): reduced tumor growth
[4]; oral, five times a week, axitinib 50 mg/kg, etoposide 30 mg/kg, combination 25 + 15 mg/kg
  survival of mice with intracranial tumors: increased survival of the animals
[5]
  doses displaying toxicity in brain endothelial cells: higher than 1 µM
[6]
  axitinib content of cerebella (LC/MS): present in the cerebellum
[7]
  general behavior and growth rate of juvenile rats: no effect on the general behavior and growth rate
[8]
  size of mixed spheroids: strong decrease in the size of spheroids
